Reference: article PMC9116245, “New 1,2,3-triazole linked ciprofloxacin-chalcones induce DNA damage by inhibiting human topoisomerase I& II and tubulin polymerization” (Journal of Enzyme Inhibition and Medicinal Chemistry, 2022)

Key:
HT-29 = assay: MTT assay; assay type: cell-based; details: Homo sapiens; HT-29, MTT assay, 24 h incubation
Experimental: (§1) The proliferation of colorectal cancer cells (HCT116, HT29 and Caco-2) was assessed using MTT assay as previously reported. Cells were treated with increasing concentrations of 1, 5, 10, 20, 40, 80 or 100 µM of CP hybrids 4a-j, doxorubicin, or DMSO. See Supplementary Appendix A.

HCT116 = assay: MTT assay; assay type: cell-based; details: Homo sapiens, HCT-116, 24 h incubation
Experimental: as §1

Caco-2 = assay: MTT assay; assay type: cell-based; details: Homo sapiens; Caco-2, MTT assay, 24 h incubation
Experimental: as §1

MOLT-4 = assay: NCI one-dose screen; assay type: cell-based; details: Homo sapiens; MOLT-4, 10 µM; read-out: Growth Percent
Experimental: (§2) For screening of anticancer properties, all the developed compounds were chosen by the (NCI) for in-vitro antitumor evaluation. The assay was carried out using 59 human cancer cell lines obtained from nine tumour subpanels (breast, ovarian, melanoma, leukaemia, renal, CNS, lung, prostate, and colon cancer cell lines). Compounds were assessed at a 10 µM concentration. […] Also, hybrids 4a, 4b, 4e, 4i and 4j produced significant anti-proliferative effect in several cancer cells, particularly in leukaemia (RPMI-8226) and colon (HCT116) cells with growth percent of 47.87, −14.59, −24.56, −24.42, −15.84, −9.74, −53.36, −10.26, −31.29, and −39.51%, respectively.
(§3) The method description for NCI anticancer screening is provided in detail in the standard NCI-60 testing protocol.

SR = assay: NCI one-dose screen; assay type: cell-based; details: Homo sapiens, read-out: Growth Percent
Experimental: as §2, §3

EKVX = assay: NCI one-dose screen; assay type: cell-based; details: Homo sapiens, read-out: Growth Percent
Experimental: as §2, §3

ACHN = assay: NCI one-dose screen; assay type: cell-based; details: Homo sapiens, read-out: Growth Percent
Experimental: as §2, §3

KM12 = assay: NCI one-dose screen; assay type: cell-based; details: Homo sapiens; KM12, 10 µM; read-out: Growth Percent
Experimental: as §2, §3

SW-620 = assay: NCI one-dose screen; assay type: cell-based; details: Homo sapiens; SW-620, 10 µM; read-out: Growth Percent
Experimental: as §2, §3

LOX IMVI = assay: NCI one-dose screen; assay type: cell-based; details: Homo sapiens, read-out: Growth Percent
Experimental: as §2, §3

OVCAR-4 = assay: NCI one-dose screen; assay type: cell-based; details: Homo sapiens; OVCAR-4, 10 µM; read-out: Growth Percent
Experimental: as §2, §3

NCI/ADR-RES = assay: NCI one-dose screen; assay type: cell-based; details: Homo sapiens, read-out: Growth Percent
Experimental: as §2, §3

SN12C = assay: NCI one-dose screen; assay type: cell-based; details: Homo sapiens, read-out: Growth Percent
Experimental: as §2, §3

HT29 = assay: NCI one-dose screen; assay type: cell-based; details: Homo sapiens, HT-29; HT29, 10 µM; read-out: Growth Percent
Experimental: as §2, §3

SK-MEL-5 = assay: NCI one-dose screen; assay type: cell-based; details: Homo sapiens; SK-MEL-5, 10 µM; read-out: Growth Percent
Experimental: as §2, §3

SNB-19 = assay: NCI one-dose screen; assay type: cell-based; details: Homo sapiens; SNB-19, 10 µM; read-out: Growth Percent
Experimental: as §2, §3

SF-539 = assay: NCI one-dose screen; assay type: cell-based; details: Homo sapiens; SF-539, 10 µM; read-out: Growth Percent
Experimental: as §2, §3

OVCAR-5 = assay: NCI one-dose screen; assay type: cell-based; details: Homo sapiens; OVCAR-5, 10 µM; read-out: Growth Percent
Experimental: as §2, §3

RXF 393 = assay: NCI one-dose screen; assay type: cell-based; details: Homo sapiens; RXF 393, 10 µM; read-out: Growth Percent
Experimental: as §2, §3

SK-OV-3 = assay: NCI one-dose screen; assay type: cell-based; details: Homo sapiens; SK-OV-3, 10 µM; read-out: Growth Percent
Experimental: as §2, §3

HOP-92 = assay: NCI one-dose screen; assay type: cell-based; details: Homo sapiens; HOP-92, 10 µM; read-out: Growth Percent
Experimental: as §2, §3

CAKI-1 = assay: NCI one-dose screen; assay type: cell-based; details: Homo sapiens; CAKI-1, 10 µM; read-out: Growth Percent
Experimental: as §2, §3

UACC-257 = assay: NCI one-dose screen; assay type: cell-based; details: Homo sapiens; UACC-257, 10 µM; read-out: Growth Percent
Experimental: as §2, §3

HL-60(TB) = assay: NCI one-dose screen; assay type: cell-based; details: Homo sapiens, read-out: Growth Percent
Experimental: as §2, §3

OVCAR-3 = assay: NCI one-dose screen; assay type: cell-based; details: Homo sapiens; OVCAR-3, 10 µM; read-out: Growth Percent
Experimental: as §2, §3

MCF7 = assay: NCI one-dose screen; assay type: cell-based; details: Homo sapiens; MCF7, 10 µM; read-out: Growth Percent
Experimental: as §2, §3

OVCAR-8 = assay: NCI one-dose screen; assay type: cell-based; details: Homo sapiens; OVCAR-8, 10 µM; read-out: Growth Percent
Experimental: as §2, §3

HOP-62 = assay: NCI one-dose screen; assay type: cell-based; details: Homo sapiens; HOP-62, 10 µM; read-out: Growth Percent
Experimental: as §2, §3

SK-MEL-2 = assay: NCI one-dose screen; assay type: cell-based; details: Homo sapiens; SK-MEL-2, 10 µM; read-out: Growth Percent
Experimental: as §2, §3

TK-10 = assay: NCI one-dose screen; assay type: cell-based; details: Homo sapiens; TK-10, 10 µM; read-out: Growth Percent
Experimental: as §2, §3

A498 = assay: NCI one-dose screen; assay type: cell-based; details: Homo sapiens; A498, 10 µM; read-out: Growth Percent
Experimental: as §2, §3

DU-145 = assay: NCI one-dose screen; assay type: cell-based; details: Homo sapiens; DU-145, 10 µM; read-out: Growth Percent
Experimental: as §2, §3

SF-295 = assay: NCI one-dose screen; assay type: cell-based; details: Homo sapiens; SF-295, 10 µM; read-out: Growth Percent
Experimental: as §2, §3

SNB-75 = assay: NCI one-dose screen; assay type: cell-based; details: Homo sapiens; SNB-75, 10 µM; read-out: Growth Percent
Experimental: as §2, §3

HCT-116 = assay: NCI one-dose screen; assay type: cell-based, human; details: HCT-116, 10 µM; for activity at 10 µM: Homo sapiens, read-out: Growth Percent
Experimental: as §2, §3

RPMI-8226 = assay: NCI one-dose screen; assay type: cell-based, human; details: RPMI-8226, 10 µM; for activity at 10 µM: Homo sapiens, read-out: Growth Percent
Experimental: as §2, §3

Compound | IC50 (HT-29) [µM] | IC50 (HCT116) [µM] | IC50 (Caco-2) [µM] | activity at 10 µM (MOLT-4) [%] | activity at 10 µM (SR) [%] | activity at 10 µM (EKVX) [%] | activity at 10 µM (KM12) [%] | activity at 10 µM (SW-620) [%] | activity at 10 µM (LOX IMVI) [%] | activity at 10 µM (OVCAR-4) [%] | activity at 10 µM (NCI/ADR-RES) [%] | activity at 10 µM (SN12C) [%] | activity at 10 µM (HT29) [%] | activity at 10 µM (SK-MEL-5) [%] | activity at 10 µM (SNB-19) [%] | activity at 10 µM (SF-539) [%] | activity at 10 µM (OVCAR-5) [%] | activity at 10 µM (RXF 393) [%] | activity at 10 µM (SK-OV-3) [%] | activity at 10 µM (HOP-92) [%] | also measured
O=C(/C=C/c1ccc(Cl)cc1)c1ccc(-n2cc(CN3CCN(c4cc5c(cc4F)c(=O)c(C(=O)O)cn5C4CC4)CC3)nn2)cc1 [Compound 4c, (E)-7-(4-((1-(4-(3-(4-chlorophenyl)acryloyl)phenyl)-1H-1,2,3-triazol-4-yl)methyl)piperazin-1-yl)-1-cyclopropyl-6-fluoro-4-oxo-1,4-dihydroquinoline-3-carboxylic acid] | 15.3 ± 1.54 | 6.45 ± 1.84 | 11.7 ± 2.95 | 84.1 | 24.1 | 94 | 73.7 | 83.7 | 36.2 | 89.7 | 87 | 45.8 | 79.2 | 77.6 | 72 | 69 | 92.2 | 58.3 | 80 | 79.6 | activity at 10 µM (ACHN): 93.5%; activity at 10 µM (CAKI-1): 61.4%; activity at 10 µM (UACC-257): 91%; activity at 10 µM (HL-60(TB)): 99.1%; activity at 10 µM (OVCAR-3): 91.5%; activity at 10 µM (MCF7): 58.2%; activity at 10 µM (OVCAR-8): 62%; activity at 10 µM (HOP-62): 79.6%; activity at 10 µM (SK-MEL-2): 96.8%; activity at 10 µM (TK-10): 83.3%; activity at 10 µM (A498): 52.2%; activity at 10 µM (DU-145): 76.3%; activity at 10 µM (SF-295): 91.7%; activity at 10 µM (SNB-75): 72.3%; activity at 10 µM (HCT-116): 6.95%; activity at 10 µM (RPMI-8226): -0.51%
Cc1ccc(/C=C/C(=O)c2ccc(-n3cc(CN4CCN(c5cc6c(cc5F)c(=O)c(C(=O)O)cn6C5CC5)CC4)nn3)cc2)cc1 [Compound 4f, (E)-1-cyclopropyl-6-fluoro-4-oxo-7-(4-((1-(4-(3-(p-tolyl)acryloyl)phenyl)-1H-1,2,3-triazol-4-yl)methyl)piperazin-1-yl)-1,4-dihydroquinoline-3-carboxylic acid] | 14.7 ± 1.81 | 7.22 ± 1.45 | 10.1 ± 2.82 | 67.7 | 16.6 | 90.7 | 88.8 | 95.5 | 50.4 | 91.4 | 102 | 44.9 | 91.7 | 91.1 | 86.9 | 83 | 99.5 | 88.4 | 78.4 | 84.6 | activity at 10 µM (ACHN): 93.7%; activity at 10 µM (CAKI-1): 64.4%; activity at 10 µM (UACC-257): 95.8%; activity at 10 µM (HL-60(TB)): 94.3%; activity at 10 µM (OVCAR-3): 95.9%; activity at 10 µM (MCF7): 64.8%; activity at 10 µM (OVCAR-8): 79%; activity at 10 µM (HOP-62): 87.4%; activity at 10 µM (SK-MEL-2): 97.2%; activity at 10 µM (TK-10): 91.4%; activity at 10 µM (A498): 57.4%; activity at 10 µM (DU-145): 78.9%; activity at 10 µM (SF-295): 87.6%; activity at 10 µM (SNB-75): 93.6%; activity at 10 µM (HCT-116): 7.82%; activity at 10 µM (RPMI-8226): 34.2%
COc1cc(/C=C/C(=O)c2ccc(-n3cc(CN4CCN(c5cc6c(cc5F)c(=O)c(C(=O)O)cn6C5CC5)CC4)nn3)cc2)cc(OC)c1OC [Compound 4j, (E)-1-cyclopropyl-6-fluoro-4-oxo-7–(4-((1–(4-(3-(3,4,5-trimethoxyphenyl)acryloyl)phenyl)-1H-1,2,3-triazol-4-yl)methyl)piperazin-1-yl)-1,4-dihydroquinoline-3-carboxylic acid] | 13.2 ± 2.4 | 2.53 ± 0.31 | 7.14 ± 2.48 | 10.5 | -12.4 | 80 | 8.81 | 9.41 | -1.51 | 73.7 | 82 | 14.9 | 4.76 | 50.9 | 44.7 | 7.09 | 72.3 | 4.51 | 67.5 | 81.6 | activity at 10 µM (CAKI-1): 60%; activity at 10 µM (UACC-257): 62%; activity at 10 µM (HL-60(TB)): 45%; activity at 10 µM (OVCAR-3): -16.1%; activity at 10 µM (MCF7): 16.1%; activity at 10 µM (OVCAR-8): 39.7%; activity at 10 µM (HOP-62): 38.7%; activity at 10 µM (SK-MEL-2): 97.4%; activity at 10 µM (TK-10): 80%; activity at 10 µM (A498): 54.4%; activity at 10 µM (DU-145): 45.8%; activity at 10 µM (SF-295): 67.5%; activity at 10 µM (SNB-75): 65.5%; Growth Percent (HCT-116): -39.51%; activity at 10 µM (HCT-116): -39.5%; activity at 10 µM (RPMI-8226): -15.8%; Growth Percent (RPMI-8226): -15.84%
